Results from patent publication US8110681B2, “Compounds for the treatment of spinal muscular atrophy and other uses” (The United States of America as represented by the …, priority 2006, dated 2012).
Where two headings read alike, the source gives them in different places.

Tested on: SMN2-linked luciferase-reporter gene construct
Experiment: SMN splice reporter assay (SMN2-linked luciferase reporter, Example 10)
Assay type: cell-based
Conditions: for maximal fold induction: read-out: SMN Splice Reporter Assay (Example 10) Avg MaxFold Increase
Source text: Cervical carcinoma cell lines were transformed with a SMN2-linked luciferase-reporter gene construct. The reporter is designed to detect shifts in the alternative splicing of SMN2 sequences. In particular, the reporter is constructed as a fusion of the alternatively spliced sequences of the SMN2 gene and the luciferase gene. Luciferase sequences are in the correct translational reading frame only when the SMN2 sequences are spliced according to the normal SMN1 mechanism (e.g., splicing to include exon 7), which allows for translation of the stable SMN protein. Compounds were tested in the assay by administering the compound to the cell line and detecting an increase in the luciferase activity. The assay is described in greater detail in Zhang et al., Gene Ther., 8, 1532-8 (2001). Compounds were administered as described in Lunn et al, Chem. & Biol, 11, 1489-1493 (2004).
The results are reported as a fold-increase over a baseline reading of transformed cells without any test compound.

[1] = maximum fold increase of reporter signal, average
[2] = SMN2-linked luciferase reporter, average
[3] = SMN2-linked luciferase reporter, average maximum fold increase

How did the maximal fold induction [1] turn out when `CC(C(=O)O)c1ccc(N2Cc3cc(N)ccc3C2=O)cc1` (stereo not shown) [ALB-111950a] was run?
The maximal fold induction was 1.07.

`COc1ccc(-c2cccc3c2C(=O)N(c2ccc(C(C)C(=O)O)cc2)C3)cc1` (stereo not shown) [ALB-112156] was tested. Which maximal fold induction [1] did it give?
Its maximal fold induction is 1.27.

Which maximal fold induction [1] does the source give for `CC(C(=O)OC(C)(C)C)c1ccc(N2Cc3cccc([N+](=O)[O-])c3C2=O)cc1` (stereo not shown) [ALB-111951] here?
Its maximal fold induction is 1.2.

Which maximal fold induction [1] does the source give for `COCC(C)(C)c1ccc(N2Cc3ccccc3C2=O)cc1` [ALB-115427] here?
The maximal fold induction was 1.31.

Which results are given for `COc1ccc2c(c1)CN(c1ccc(C(C)C(=O)O)cc1)C2=O` (stereo not shown) [ALB-111959]?
EC50 [2]: 451 nM; maximal fold induction [1]: 1.26

How did the maximal fold induction [1] turn out when `CC(C)c1ccc(N2Cc3ccc(N4CCCCC4)cc3C2=O)cc1` [ALB-116418] was run?
Its maximal fold induction is 1.15.

Which EC50 [2] does the source give for `CC(C)c1ccc(N2Cc3cc(N)ccc3C2=O)cc1` [ALB-117747] here?
The EC50 was 34 nM.

What about the maximal fold induction [1] of the same compound?
The maximal fold induction was 1.49.

`CC(C(=O)OC(C)(C)C)c1ccc(N2Cc3ccc(Cl)cc3C2=O)cc1` (stereo not shown) [ALB-111740] was tested. Which EC50 [2] did it give?
Its EC50 is 2020 nM.

And the maximal fold induction [1]?
Its maximal fold induction is 1.49.

Which maximal fold induction [1] does the source give for `COc1ccc(C(=O)Nc2ccc3c(c2)C(=O)N(c2ccc(C(C)C(=O)OC(C)(C)C)cc2)C3)cc1` (stereo not shown) [ALB-111954] here?
Its maximal fold induction is 1.04.

Which EC50 [2] does the source give for `CC(C(=O)O)c1ccc(N2Cc3cc(-c4ccc(Cl)cc4)ccc3C2=O)cc1` (stereo not shown) [ALB-111890] here?
The EC50 was 7740 nM.

What about the maximal fold induction [1] of the same compound?
The maximal fold induction was 1.16.

`COc1ccc(-c2ccc3c(c2)C(=O)N(c2ccc(C(C)C(=O)O)cc2)C3)cc1` (stereo not shown) [ALB-112448] was tested. Which EC50 [2] did it give?
Its EC50 is 6190 nM.

What about the maximal fold induction [1] of the same compound?
The maximal fold induction was 1.55.

Which maximal fold induction [1] does the source give for `CC(C(=O)O)c1ccc(N2Cc3ccc(O)cc3C2=O)cc1` (stereo not shown) [ALB-113103] here?
The maximal fold induction was 1.04.

For `COc1ccc(-c2ccc3c(c2)C(=O)N(c2ccc(C(C)C(=O)OC(C)(C)C)cc2)C3)cc1` (stereo not shown) [ALB-112450], which maximal fold induction [1] is on record?
The maximal fold induction was 1.09.

How did the maximal fold induction [1] turn out when `CC(C(=O)O)c1ccc(N2Cc3ccccc3C2=O)c(-c2cccnc2)c1` (stereo not shown) [ALB-112198] was run?
Its maximal fold induction is 1.12.

For `CCCNC(=O)Nc1ccc2c(c1)C(=O)N(c1ccc(C(C)C)cc1)C2` [ALB-118415], which EC50 [2] is on record?
The EC50 was 13200 nM.

And the maximal fold induction [3]?
The maximal fold induction was 1.4.

With `CCCc1ccc(N2Cc3ccc(OC)cc3C2=O)cc1` [ALB-115708] as the compound, how does the maximal fold induction [1] read?
The maximal fold induction was 1.1.

What does the source list for `CC(C)c1ccc(N2Cc3cccc(N(C)C)c3C2=O)cc1` [ALB-117904]?
EC50 [2]: 4370 nM; maximal fold induction [1]: 1.46

With `CC(C(=O)OC(C)(C)C)c1ccc(N2Cc3c(cccc3-c3ccccc3)C2=O)cc1` (stereo not shown) [ALB-112187] as the compound, how does the maximal fold induction [1] read?
The maximal fold induction was 1.07.

For `CC(C(=O)O)c1ccc(N2Cc3cc(-c4ccc(Cl)c(Cl)c4)ccc3C2=O)cc1` (stereo not shown) [ALB-111885], which maximal fold induction [1] is on record?
The maximal fold induction was 1.09.

How did the maximal fold induction [1] turn out when `Cc1ccc(-c2cc(C(C)C(=O)O)ccc2N2Cc3ccccc3C2=O)cc1` (stereo not shown) [ALB-112085.] was run?
Its maximal fold induction is 1.08.

With `CCOCc1ccc2c(c1)C(=O)N(c1ccc(C(C)COC)cc1)C2` (stereo not shown) [ALB-114846] as the compound, how does the EC50 [2] read?
The EC50 was 493 nM.

What about the maximal fold induction [1] of the same compound?
The maximal fold induction was 1.3.

For `CC(C)c1ccc(N2Cc3ccc(N4CCOCC4)cc3C2=O)cc1` [ALB-116368], which maximal fold induction [1] is on record?
Its maximal fold induction is 1.08.

With `COCc1ccc2c(c1)C(=O)N(c1ccc(C(C)COC)cc1)C2` (stereo not shown) [ALB-114942] as the compound, how does the EC50 [2] read?
The EC50 was 217 nM.

And the maximal fold induction [1]?
The maximal fold induction was 1.33.

How did the maximal fold induction [1] turn out when `CC(C(=O)OC(C)(C)C)c1ccc(N2Cc3c(Br)cccc3C2=O)cc1` (stereo not shown) [ALB-112064] was run?
The maximal fold induction was 1.04.

Which results are given for `Cc1ccc2c(c1)C(=O)N(c1ccc(C(C)C(=O)O)cc1)C2` (stereo not shown) [ALB-112954]?
EC50 [2]: 330 nM; maximal fold induction [1]: 1.62

Which EC50 [2] does the source give for `CCCC(C)c1ccc(N2Cc3ccccc3C2=O)cc1` (stereo not shown) [ALB-117045] here?
The EC50 was 70 nM.

And the maximal fold induction [1]?
The maximal fold induction was 1.25.

With `CC(C(=O)OC(C)(C)C)c1ccc(N2Cc3ccc(N)cc3C2=O)cc1` (stereo not shown) [ALB-111745] as the compound, how does the EC50 [2] read?
Its EC50 is 2120 nM.

What about the maximal fold induction [1] of the same compound?
The maximal fold induction was 1.17.

Which results are given for `COCC(C)c1ccc(N2Cc3ccccc3C2=O)cc1` (stereo not shown) [ALB-113389]?
EC50 [2]: 179 nM; maximal fold induction [1]: 1.34

Which results are given for `COc1cc2c(c(OC)c1)C(=O)N(c1ccc(C(C)C)cc1)C2` [ALB-118034]?
EC50 [2]: 447 nM; maximal fold induction [1]: 1.3

With `O=C1c2ccccc2CN1c1ccc(C2CC2)cc1` [ALB-115802] as the compound, how does the EC50 [2] read?
Its EC50 is 61 nM.

And the maximal fold induction [3]?
The maximal fold induction was 1.28.

What does the source list for `CC(C(=O)O)c1ccc(N2Cc3cccc(Cl)c3C2=O)cc1` (stereo not shown) [ALB-111784]?
EC50 [2]: 1130 nM; maximal fold induction [1]: 1.41

For `CC(C)c1ccc(N2Cc3ccc(NC(=O)N(C)c4ccccc4)cc3C2=O)cc1` [ALB-118733], which maximal fold induction [3] is on record?
Its maximal fold induction is 1.12.

For `CCCc1ccc2c(c1)CN(c1ccc(C(C)C(=O)O)cc1)C2=O` (stereo not shown) [ALB-113564], which maximal fold induction [1] is on record?
The maximal fold induction was 1.05.

What does the source list for `CC(C(=O)O)c1ccc(N2Cc3cccc(-c4cccs4)c3C2=O)cc1` (stereo not shown) [ALB-112158]?
EC50 [2]: 11400 nM; maximal fold induction [1]: 1.24

For `CC(C(=O)OC(C)(C)C)c1ccc(N2Cc3cc(Br)ccc3C2=O)cc1` (stereo not shown) [ALB-111853], which EC50 [2] is on record?
The EC50 was 21400 nM.

What about the maximal fold induction [1] of the same compound?
Its maximal fold induction is 1.1.

With `CCCc1ccc(N2Cc3ccccc3C2=O)cc1` [ALB-115499] as the compound, how does the EC50 [2] read?
Its EC50 is 83 nM.

And the maximal fold induction [1]?
Its maximal fold induction is 1.27.
